The test system of this assay is human breast cancer MDA-MB-231 cell line. Description: AlamarBlue cytotoxicity, 2,2′-BPBPA series, MDA-MB-231. Format: cell-based. The conditions noted are these: 24, 48, 72 h. As for the experimental part:
Cell culture methods. MCF-7 and MDA-MB-231 were incubated using DMEM at 37° C. in 5% CO2. The hFOB 1.19 cell lines were incubated with DMEM: F12 at 34° C. in 5% CO2.
Cell lines were supplemented using 10% FBS and 1% Pen-Strep. The media was replaced twice per week. Cell passages were carried out at 80% confluency.
Cell-based assays. Cell lines were seeded in 96 well plates at a density of 5x 10^3 cells/mL and incubated for 24 h before treatment. Cells were treated with 100 μL of 2,2′-BPBPA (0-400 μM), unloaded and loaded nano-Ca@2,2′-BPBPA (6.3-50 μM) for 24, 48, and 72 h.
Control groups were treated with media (DMEM or DMEM: F12) supplemented with 1% Pen-Strep. Cell viability was determined by employing AlamarBLue@. The media was replaced with 100 μL of 10% AlamarBlue® solution. After 24 h of incubation, the fluorescence was assessed at )max of 560 nm for excitation and 590 nm for emission.
Cell culture methods. MCF-7 and MDA-MB-231 were incubated using DMEM at 37° C. in 5% CO2. The hFOB 1.19 cell lines were incubated with DMEM: F12 at 34° C. in 5% CO2. Cell lines were supplemented using 10% FBS and 1% Pen-Strep. The media was replaced twice times per week. Cell passages were carried out at 80% confluency.
Seeding. […]
AlamarBlue@assay. […] Then, the fluorescence was assessed at 560 nm of excitation and λmax 590 nm of emission. […]
A general note: The colour change of resazurin is a common sign of viable cells or microbes.

pIC50: −log10 of the molar value.

The term pIC50 denotes −log10 of the IC50, conventionally taken in molar units. With `O=P(O)(O)c1ccc(-c2ccc(P(=O)(O)O)cn2)nc1` [2,2′-BPBPA, 2,2′-bipyridine-5,5′-bisphosphonic acid], the negative logarithm of the IC50 (pIC50) was less than 3.70.

These data come from US20250296942A1, “Phosphonate-Based Coordination Complexes and Methods of Preparation and Use Thereof” (University of Puerto Rico, priority 2021, published 2025).
